Reference: PubChem BioAssay (NCI)
Values joined by “and” are separate entries in the source; they are usually repeats but may differ in a detail not shown here. Equal values may be shown once.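 Following 48 hours of exposure in 96-well plates, responses at five concentrations were used to interpolate endpoints linearly. Abbreviation: GI50, concentration required for 50% inhibition of growth. The concentration for full growth arrest is given as TGI.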

system: NCI/ADR-RES ovarian; assay: NCI tumour cell line growth inhibition, 48 h

Compound	GI50	TGI [µM]
Nc1nc(Nc2ccccc2)c2ncn(Cc3cc4c(cc3Br)OCO4)c2n1	0.0565 µM	> 37.5
O=C(Nc1cccc(Cl)c1)c1cc2ccccc2cc1O	2.62 µM and 2.06 µM	
Nc1c(C(=O)N/N=C/c2ccc(-c3ccc(Cl)cc3)o2)cnn1-c1ccnc2c(C(F)(F)F)cccc12	> 100 µM	> 100
CCCCCc1c(C)[nH]c(/C=C2\N=C(c3ccc[nH]3)C=C2CC)c1C	0.0139 µM	0.124
N#CC1(C2SCCS2=O)C2=C(C(=O)c3ccccc3C2=O)N2CCCC21 (centres undefined)		10.2
Cc1c[n+](Cc2ccc3ccccc3c2)cn1Cc1ccc2ccccc2c1	> 100 µM	> 100
COc1cc(/C=C2\C(=O)Nc3ccc(F)cc32)cc(OC)c1OC	18.9 µM	> 100
COC(COC(=O)N1CCN(C=O)CC1)C1=C(N2CC2)C(=O)C(C)=C(N2CC2)C1=O (centres undefined)		31.9
O=C(N/N=C\c1cc(Br)ccc1O)c1ccncc1	1.42 µM	34.5
COc1ccc(-n2cc(-c3ccc(Cl)c(Cl)c3)nc2SCc2cccc(C#N)c2)cc1	23 µM	> 100
O=C1/C(=C\c2cccn2Cc2ccccc2)c2ccccc2N1c1c(Cl)cccc1Cl	> 100 µM	> 100

system: ACHN renal; assay: NCI tumour cell line growth inhibition, 48 h

Compound	GI50	TGI [µM]
Nc1nc(Nc2ccccc2)c2ncn(Cc3cc4c(cc3Br)OCO4)c2n1	0.0799 µM	30.4
O=C(Nc1cccc(Cl)c1)c1cc2ccccc2cc1O	2.55 µM and 0.609 µM	> 100
Nc1c(C(=O)N/N=C/c2ccc(-c3ccc(Cl)cc3)o2)cnn1-c1ccnc2c(C(F)(F)F)cccc12	> 100 µM	> 100
CCCCCc1c(C)[nH]c(/C=C2\N=C(c3ccc[nH]3)C=C2CC)c1C	0.0225 µM	0.189
N#CC1(C2SCCS2=O)C2=C(C(=O)c3ccccc3C2=O)N2CCCC21 (centres undefined)		16.2
Cc1c[n+](Cc2ccc3ccccc3c2)cn1Cc1ccc2ccccc2c1	5.41 µM	19.4
COc1cc(/C=C2\C(=O)Nc3ccc(F)cc32)cc(OC)c1OC	50 µM	> 100
COC(COC(=O)N1CCN(C=O)CC1)C1=C(N2CC2)C(=O)C(C)=C(N2CC2)C1=O (centres undefined)		0.424
O=C(N/N=C\c1cc(Br)ccc1O)c1ccncc1	2.37 µM	> 100
COc1ccc(-n2cc(-c3ccc(Cl)c(Cl)c3)nc2SCc2cccc(C#N)c2)cc1	30.4 µM	> 100
O=C1/C(=C\c2cccn2Cc2ccccc2)c2ccccc2N1c1c(Cl)cccc1Cl	7.9 µM	> 100

system: SN12C renal; assay: NCI tumour cell line growth inhibition, 48 h

Compound	GI50	TGI [µM]
Nc1nc(Nc2ccccc2)c2ncn(Cc3cc4c(cc3Br)OCO4)c2n1	0.407 µM	> 100
O=C(Nc1cccc(Cl)c1)c1cc2ccccc2cc1O	2.05 µM and 1.76 µM	> 100
Nc1c(C(=O)N/N=C/c2ccc(-c3ccc(Cl)cc3)o2)cnn1-c1ccnc2c(C(F)(F)F)cccc12	> 100 µM	> 100
CCCCCc1c(C)[nH]c(/C=C2\N=C(c3ccc[nH]3)C=C2CC)c1C	0.0169 µM	0.226
N#CC1(C2SCCS2=O)C2=C(C(=O)c3ccccc3C2=O)N2CCCC21 (centres undefined)		6.71
Cc1c[n+](Cc2ccc3ccccc3c2)cn1Cc1ccc2ccccc2c1	1.67 µM	3.33
COc1cc(/C=C2\C(=O)Nc3ccc(F)cc32)cc(OC)c1OC	51.8 µM	> 100
COC(COC(=O)N1CCN(C=O)CC1)C1=C(N2CC2)C(=O)C(C)=C(N2CC2)C1=O (centres undefined)		1.14
O=C(N/N=C\c1cc(Br)ccc1O)c1ccncc1	4.63 µM	> 100
COc1ccc(-n2cc(-c3ccc(Cl)c(Cl)c3)nc2SCc2cccc(C#N)c2)cc1	14 µM	35.7
O=C1/C(=C\c2cccn2Cc2ccccc2)c2ccccc2N1c1c(Cl)cccc1Cl	> 100 µM	> 100

system: UO-31 renal; assay: NCI tumour cell line growth inhibition, 48 h

Compound	GI50 [µM]	TGI [µM]
Nc1nc(Nc2ccccc2)c2ncn(Cc3cc4c(cc3Br)OCO4)c2n1	0.129	> 100
O=C(Nc1cccc(Cl)c1)c1cc2ccccc2cc1O	0.34	> 100
Nc1c(C(=O)N/N=C/c2ccc(-c3ccc(Cl)cc3)o2)cnn1-c1ccnc2c(C(F)(F)F)cccc12	> 100	> 100
CCCCCc1c(C)[nH]c(/C=C2\N=C(c3ccc[nH]3)C=C2CC)c1C	0.0134	0.0357
N#CC1(C2SCCS2=O)C2=C(C(=O)c3ccccc3C2=O)N2CCCC21 (centres undefined)		14.2
Cc1c[n+](Cc2ccc3ccccc3c2)cn1Cc1ccc2ccccc2c1	5.47	20.4
COc1cc(/C=C2\C(=O)Nc3ccc(F)cc32)cc(OC)c1OC	11.9	> 100
COC(COC(=O)N1CCN(C=O)CC1)C1=C(N2CC2)C(=O)C(C)=C(N2CC2)C1=O (centres undefined)		3.19
O=C(N/N=C\c1cc(Br)ccc1O)c1ccncc1	1.76	> 100
COc1ccc(-n2cc(-c3ccc(Cl)c(Cl)c3)nc2SCc2cccc(C#N)c2)cc1	35.2	> 100
O=C1/C(=C\c2cccn2Cc2ccccc2)c2ccccc2N1c1c(Cl)cccc1Cl	3.89	> 100

system: MOLT-4 leukemia; assay: NCI tumour cell line growth inhibition, 48 h

Compound	GI50	TGI [µM]
Nc1nc(Nc2ccccc2)c2ncn(Cc3cc4c(cc3Br)OCO4)c2n1	0.196 µM	> 100
O=C(Nc1cccc(Cl)c1)c1cc2ccccc2cc1O	4.07 µM and 4.04 µM	> 100
Nc1c(C(=O)N/N=C/c2ccc(-c3ccc(Cl)cc3)o2)cnn1-c1ccnc2c(C(F)(F)F)cccc12	50.8 µM	> 100
CCCCCc1c(C)[nH]c(/C=C2\N=C(c3ccc[nH]3)C=C2CC)c1C	< 0.01 µM	0.108
N#CC1(C2SCCS2=O)C2=C(C(=O)c3ccccc3C2=O)N2CCCC21 (centres undefined)		19.7
Cc1c[n+](Cc2ccc3ccccc3c2)cn1Cc1ccc2ccccc2c1	1.7 µM	4.06
COc1cc(/C=C2\C(=O)Nc3ccc(F)cc32)cc(OC)c1OC	9.26 µM	> 100
COC(COC(=O)N1CCN(C=O)CC1)C1=C(N2CC2)C(=O)C(C)=C(N2CC2)C1=O (centres undefined)		14.1
O=C(N/N=C\c1cc(Br)ccc1O)c1ccncc1	0.551 µM	23.5
COc1ccc(-n2cc(-c3ccc(Cl)c(Cl)c3)nc2SCc2cccc(C#N)c2)cc1	19.4 µM	> 100
O=C1/C(=C\c2cccn2Cc2ccccc2)c2ccccc2N1c1c(Cl)cccc1Cl	> 100 µM	> 100
